# Tested on: Metabolism protein genes
# Assay: DNA chip mRNA expression in yeast, metabolism protein genes (Table 7)
# Type: cell-based, Saccharomyces cerevisiae S288C
# Summary of the method: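 S. cerevisiae S288C grown at 25° C. in YPD to log phase, then exposed 2 h to a toxicant at a growth-inhibiting, non-lethal concentration; untreated cells as control. Poly(A) mRNA reverse-transcribed with Cy3-dUTP or Cy5-dUTP, hybridized >12 h at 65° C. to whole-genome yeast DNA chip; value = fluorescence ratio treated/untreated.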
smiles,measurement,setting,value
"CCCCCCCCCCCCc1ccc(S(=O)(=O)[O-])cc1.[Na+] [(17), sodium dodecylbenzosulfonate]",The level of expressed mRNA in the presence of chemical substance/The level of expressed mRNA in the absence of chemical substance,yeast gene YJR155W,1.3
same,The level of expressed mRNA in the presence of chemical substance/The level of expressed mRNA in the absence of chemical substance,yeast gene YKL035W,1.0
same,level of expressed mRNA in the presence/in the absence of chemical substance,yeast gene YKL060C,1.2
same,The level of expressed mRNA in the presence of chemical substance/The level of expressed mRNA in the absence of chemical substance,yeast gene YKL091C,1.4
same,The level of expressed mRNA in the presence of chemical substance/The level of expressed mRNA in the absence of chemical substance,yeast gene YKL104C,1.0
same,level of expressed mRNA in the presence/in the absence of chemical substance,yeast gene YKL148C,0.8
same,The level of expressed mRNA in the presence of chemical substance/The level of expressed mRNA in the absence of chemical substance,yeast gene YKL152C,1.1
same,level of expressed mRNA in the presence/in the absence of chemical substance,yeast gene YKL157W,1.2
same,The level of expressed mRNA in the presence of chemical substance/The level of expressed mRNA in the absence of chemical substance,yeast gene YKL213C,1.4
same,The level of expressed mRNA in the presence of chemical substance/The level of expressed mRNA in the absence of chemical substance,yeast gene YKL215C,0.8
same,level of expressed mRNA in the presence/in the absence of chemical substance,yeast gene YKR034W,0.8
same,The level of expressed mRNA in the presence of chemical substance/The level of expressed mRNA in the absence of chemical substance,yeast gene YLL058W,1.4
same,level of expressed mRNA in the presence/in the absence of chemical substance,yeast gene YLR006C,1.6
same,level of expressed mRNA in the presence/in the absence of chemical substance,yeast gene YLR044C,0.9
same,level of expressed mRNA in the presence/in the absence of chemical substance,yeast gene YLR056W,1.1
same,level of expressed mRNA in the presence/in the absence of chemical substance,yeast gene YLR058C,0.8
same,level of expressed mRNA in the presence/in the absence of chemical substance,yeast gene YLR081W,0.7
same,level of expressed mRNA in the presence/in the absence of chemical substance,yeast gene YLR089C,1.2
same,The level of expressed mRNA in the presence of chemical substance/The level of expressed mRNA in the absence of chemical substance,yeast gene YLR180W,0.8
same,The level of expressed mRNA in the presence of chemical substance/The level of expressed mRNA in the absence of chemical substance,yeast gene YLR273C,1.0
same,level of expressed mRNA in the presence/in the absence of chemical substance,yeast gene YLR284C,2.9
same,The level of expressed mRNA in the presence of chemical substance/The level of expressed mRNA in the absence of chemical substance,yeast gene YLR299W,1.3
same,The level of expressed mRNA in the presence of chemical substance/The level of expressed mRNA in the absence of chemical substance,yeast gene YLR300W,0.7
same,level of expressed mRNA in the presence/in the absence of chemical substance,yeast gene YLR304C,0.5
same,The level of expressed mRNA in the presence of chemical substance/The level of expressed mRNA in the absence of chemical substance,yeast gene YLR307W,1.1
same,The level of expressed mRNA in the presence of chemical substance/The level of expressed mRNA in the absence of chemical substance,yeast gene YLR348C,1.1
same,level of expressed mRNA in the presence/in the absence of chemical substance,yeast gene YLR354C,1.0
same,level of expressed mRNA in the presence/in the absence of chemical substance,yeast gene YLR372W,0.5
same,level of expressed mRNA in the presence/in the absence of chemical substance,yeast gene YML022W,0.5
same,The level of expressed mRNA in the presence of chemical substance/The level of expressed mRNA in the absence of chemical substance,yeast gene YML054C,1.1
same,The level of expressed mRNA in the presence of chemical substance/The level of expressed mRNA in the absence of chemical substance,yeast gene YML070W,1.2
same,The level of expressed mRNA in the presence of chemical substance/The level of expressed mRNA in the absence of chemical substance,yeast gene YML100W,1.0
same,The level of expressed mRNA in the presence of chemical substance/The level of expressed mRNA in the absence of chemical substance,yeast gene YMR008C,3.0
same,level of expressed mRNA in the presence/in the absence of chemical substance,yeast gene YMR011W,1.3
same,level of expressed mRNA in the presence/in the absence of chemical substance,yeast gene YMR015C,1.0
same,The level of expressed mRNA in the presence of chemical substance/The level of expressed mRNA in the absence of chemical substance,yeast gene YMR020W,2.3
same,level of expressed mRNA in the presence/in the absence of chemical substance,yeast gene YMR083W,0.9
same,The level of expressed mRNA in the presence of chemical substance/The level of expressed mRNA in the absence of chemical substance,yeast gene YMR105C,1.6
same,The level of expressed mRNA in the presence of chemical substance/The level of expressed mRNA in the absence of chemical substance,yeast gene YMR189W,1.0
same,level of expressed mRNA in the presence/in the absence of chemical substance,yeast gene YMR205C,0.6
same,level of expressed mRNA in the presence/in the absence of chemical substance,yeast gene YMR261C,0.7
same,The level of expressed mRNA in the presence of chemical substance/The level of expressed mRNA in the absence of chemical substance,yeast gene YMR271C,1.3
same,The level of expressed mRNA in the presence of chemical substance/The level of expressed mRNA in the absence of chemical substance,yeast gene YMR296C,0.8
same,level of expressed mRNA in the presence/in the absence of chemical substance,yeast gene YMR323W,1.1
same,The level of expressed mRNA in the presence of chemical substance/The level of expressed mRNA in the absence of chemical substance,yeast gene YNL012W,1.3
same,level of expressed mRNA in the presence/in the absence of chemical substance,yeast gene YNL025C,0.7
same,The level of expressed mRNA in the presence of chemical substance/The level of expressed mRNA in the absence of chemical substance,yeast gene YNL045W,1.1
same,The level of expressed mRNA in the presence of chemical substance/The level of expressed mRNA in the absence of chemical substance,yeast gene YNL104C,0.9
same,The level of expressed mRNA in the presence of chemical substance/The level of expressed mRNA in the absence of chemical substance,yeast gene YNL106C,1.1
same,The level of expressed mRNA in the presence of chemical substance/The level of expressed mRNA in the absence of chemical substance,yeast gene YNL169C,1.1
same,level of expressed mRNA in the presence/in the absence of chemical substance,yeast gene YNL192W,2.3
same,The level of expressed mRNA in the presence of chemical substance/The level of expressed mRNA in the absence of chemical substance,yeast gene YNL231C,3.1
same,The level of expressed mRNA in the presence of chemical substance/The level of expressed mRNA in the absence of chemical substance,yeast gene YNL322C,0.9
same,The level of expressed mRNA in the presence of chemical substance/The level of expressed mRNA in the absence of chemical substance,yeast gene YNL331C,1.7
same,The level of expressed mRNA in the presence of chemical substance/The level of expressed mRNA in the absence of chemical substance,yeast gene YNL332W,1.0
same,The level of expressed mRNA in the presence of chemical substance/The level of expressed mRNA in the absence of chemical substance,yeast gene YNR019W,2.4
same,The level of expressed mRNA in the presence of chemical substance/The level of expressed mRNA in the absence of chemical substance,yeast gene YNR033W,0.9
same,The level of expressed mRNA in the presence of chemical substance/The level of expressed mRNA in the absence of chemical substance,yeast gene YNR059W,2.6
same,The level of expressed mRNA in the presence of chemical substance/The level of expressed mRNA in the absence of chemical substance,yeast gene YOL058W,1.2
same,level of expressed mRNA in the presence/in the absence of chemical substance,yeast gene YOL086C,1.1
same,level of expressed mRNA in the presence/in the absence of chemical substance,yeast gene YOL108C,1.5
same,level of expressed mRNA in the presence/in the absence of chemical substance,yeast gene YOL116W,1.1
same,The level of expressed mRNA in the presence of chemical substance/The level of expressed mRNA in the absence of chemical substance,yeast gene YOL126C,1.6
same,The level of expressed mRNA in the presence of chemical substance/The level of expressed mRNA in the absence of chemical substance,yeast gene YOL153C,1.1
same,level of expressed mRNA in the presence/in the absence of chemical substance,yeast gene YOL156W,0.9
same,The level of expressed mRNA in the presence of chemical substance/The level of expressed mRNA in the absence of chemical substance,yeast gene YOL165C,1.6
same,level of expressed mRNA in the presence/in the absence of chemical substance,yeast gene YOR002W,0.9
same,level of expressed mRNA in the presence/in the absence of chemical substance,yeast gene YOR085W,0.9
same,The level of expressed mRNA in the presence of chemical substance/The level of expressed mRNA in the absence of chemical substance,yeast gene YOR099W,1.2
same,level of expressed mRNA in the presence/in the absence of chemical substance,yeast gene YOR103C,1.1
same,level of expressed mRNA in the presence/in the absence of chemical substance,yeast gene YOR108W,1.1
same,level of expressed mRNA in the presence/in the absence of chemical substance,yeast gene YOR128C,1.2
same,The level of expressed mRNA in the presence of chemical substance/The level of expressed mRNA in the absence of chemical substance,yeast gene YOR130C,1.5
same,level of expressed mRNA in the presence/in the absence of chemical substance,yeast gene YOR142W,0.9
same,level of expressed mRNA in the presence/in the absence of chemical substance,yeast gene YOR176W,1.2
same,level of expressed mRNA in the presence/in the absence of chemical substance,yeast gene YOR178C,1.0
same,level of expressed mRNA in the presence/in the absence of chemical substance,yeast gene YOR251C,0.9
same,The level of expressed mRNA in the presence of chemical substance/The level of expressed mRNA in the absence of chemical substance,yeast gene YOR336W,1.0
same,The level of expressed mRNA in the presence of chemical substance/The level of expressed mRNA in the absence of chemical substance,yeast gene YOR347C,1.7
same,level of expressed mRNA in the presence/in the absence of chemical substance,yeast gene YOR348C,0.9
same,The level of expressed mRNA in the presence of chemical substance/The level of expressed mRNA in the absence of chemical substance,yeast gene YPL017C,1.3
same,level of expressed mRNA in the presence/in the absence of chemical substance,yeast gene YPL028W,1.4
same,level of expressed mRNA in the presence/in the absence of chemical substance,yeast gene YPL057C,2.2
same,level of expressed mRNA in the presence/in the absence of chemical substance,yeast gene YPL135W,1.5
same,level of expressed mRNA in the presence/in the absence of chemical substance,yeast gene YPL148C,1.0
same,The level of expressed mRNA in the presence of chemical substance/The level of expressed mRNA in the absence of chemical substance,yeast gene YPR026W,0.9
same,level of expressed mRNA in the presence/in the absence of chemical substance,yeast gene YPR113W,1.2
same,level of expressed mRNA in the presence/in the absence of chemical substance,yeast gene YPR165W,2.3
same,The level of expressed mRNA in the presence of chemical substance/The level of expressed mRNA in the absence of chemical substance,yeast gene YPR167C,1.7
same,level of expressed mRNA in the presence/in the absence of chemical substance,yeast gene YPR183W,1.2

# Reference: patent US8192962B2, “Processes for detecting toxic substances” (Daikin Industries, Ltd., priority 2001, dated 2012)
